Measured values taken from US20100179158A1, “INHIBITORS OF CYCLIC AMP PHOSPHODIESTERASES” (priority 2007, published 2010).

Experiments:
PDE4D3 [1] = molecular target: T1, PDE4D3 (Homo sapiens, UniProt Q08499); assay: IC50 on PDE4D3; format: biochemical; details: read-out: IC50, PDE 4D3
T1 construct: targets used in the assays are full-length proteins (as opposed to simply the catalytic domain); expressed in transfected cells; host or cells: Schizosaccharomyces pombe, gene integrated at the cgs2 locus
T1 sequence (Q08499 1-673 isoform Q08499-2): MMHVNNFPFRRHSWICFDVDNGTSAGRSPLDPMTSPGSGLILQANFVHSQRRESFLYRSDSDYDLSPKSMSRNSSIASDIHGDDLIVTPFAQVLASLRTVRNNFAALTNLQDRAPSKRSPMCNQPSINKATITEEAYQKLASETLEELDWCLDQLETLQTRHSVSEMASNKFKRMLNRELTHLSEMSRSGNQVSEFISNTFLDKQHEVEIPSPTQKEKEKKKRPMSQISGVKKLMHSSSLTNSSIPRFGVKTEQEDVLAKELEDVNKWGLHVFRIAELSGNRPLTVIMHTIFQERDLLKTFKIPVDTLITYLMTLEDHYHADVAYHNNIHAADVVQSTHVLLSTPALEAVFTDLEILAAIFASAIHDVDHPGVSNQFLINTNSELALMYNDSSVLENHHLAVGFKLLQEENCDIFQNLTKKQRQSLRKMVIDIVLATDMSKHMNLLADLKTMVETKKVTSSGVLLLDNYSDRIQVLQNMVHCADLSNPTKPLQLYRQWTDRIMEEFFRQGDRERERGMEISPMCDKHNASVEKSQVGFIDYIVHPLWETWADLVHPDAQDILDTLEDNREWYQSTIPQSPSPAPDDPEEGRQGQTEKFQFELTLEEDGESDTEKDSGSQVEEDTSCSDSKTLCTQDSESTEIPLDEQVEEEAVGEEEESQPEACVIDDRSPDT

PDE4A5 = molecular target: T2, PDE4A5 (Rattus norvegicus, UniProt P54748); assay: Fission yeast 5FOA growth assay, strain expressing PDE4A5; format: cell-based; details: 5FOA growth screen; for 1 Assay (20 uM), PDE 4A5: 20 uM compound; for 2 Assay (2 uM), PDE 4A5: 2 uM compound
T2 construct: targets used in the assays are full-length proteins (as opposed to simply the catalytic domain); expressed in transfected cells; host or cells: Schizosaccharomyces pombe, gene integrated at the cgs2 locus
T2 sequence (P54748 1-844): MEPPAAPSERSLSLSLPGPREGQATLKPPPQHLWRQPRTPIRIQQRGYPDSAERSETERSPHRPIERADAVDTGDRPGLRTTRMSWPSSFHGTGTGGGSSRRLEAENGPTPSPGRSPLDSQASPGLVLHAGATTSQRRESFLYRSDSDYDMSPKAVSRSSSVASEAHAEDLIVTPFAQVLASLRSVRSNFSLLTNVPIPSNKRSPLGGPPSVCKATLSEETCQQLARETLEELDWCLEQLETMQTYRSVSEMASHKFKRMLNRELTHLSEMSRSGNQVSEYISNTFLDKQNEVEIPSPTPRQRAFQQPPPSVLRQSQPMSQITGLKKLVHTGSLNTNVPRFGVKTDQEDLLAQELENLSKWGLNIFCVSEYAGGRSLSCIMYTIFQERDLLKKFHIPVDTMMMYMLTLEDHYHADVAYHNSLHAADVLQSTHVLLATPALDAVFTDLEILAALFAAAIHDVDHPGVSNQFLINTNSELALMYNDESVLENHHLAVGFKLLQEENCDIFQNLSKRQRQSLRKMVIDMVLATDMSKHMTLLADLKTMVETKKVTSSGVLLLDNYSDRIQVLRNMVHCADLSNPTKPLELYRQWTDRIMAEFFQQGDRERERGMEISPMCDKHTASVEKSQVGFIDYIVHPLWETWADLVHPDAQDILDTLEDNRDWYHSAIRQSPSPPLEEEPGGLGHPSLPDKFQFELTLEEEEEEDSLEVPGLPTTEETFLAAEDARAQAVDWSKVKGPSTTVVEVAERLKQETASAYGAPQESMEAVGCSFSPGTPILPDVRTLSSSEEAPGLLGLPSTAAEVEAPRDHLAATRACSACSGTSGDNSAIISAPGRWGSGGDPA
Description: High throughput drug screens were carried out at the Broad Institute's Chemical Biology Program screening facility (Broad Institute, Cambridge, Mass.). Depending upon the strain, cultures were pregrown to exponential phase in EMM complete medium containing from 0.5 to 2.5 mM cAMP to repress fbp1-ura4 transcription. Cells were collected by centrifugation, resuspended in 5FOA medium, and 25 μl were transferred to 384-well microtiter dishes (untreated, with flat clear bottoms) that had been pre-filled with 25 μl 5FOA medium and pre-pinned with 100 nl of compounds (stock solutions were generally 10 mM) from a subset of the Prestwick Bioactive and the Microsource Spectrum compound libraries. Starting cell concentrations ranged from 0.5×10^5 to 4×10^5 cells/ml depending on the screening strain. […] Other positive control dishes contained 5 mM cAMP in the 5FOA medium. Cultures were grown for 48 hours at 30° C., sealed in an airtight container with moist paper towels to prevent evaporation. Optical densities (OD600) of cultures were measured using a microplate reader. Bioinformatic analysis of the results to determine composite Z scores was performed as previously described^30, 31.
(§1) Cells were pregrown in EMM medium [MP Biomedicals (Solon, OH), 3% glucose, filter-sterilized to avoid carmelization, which would introduce variability into the optical density of the medium] containing from 0 mM to 2.5 mM cAMP (or either 0.5 mM or 1.0 mM cGMP). This was to repress expression of the fbp1-ura4 reporter prior to exposure of cells to 5FOA medium. Cells were grown at 30° C. to exponential phase (approximately 10^7 cells/ml). Cells were collected by centrifugation and resuspended in 5FOA medium, and 25 μl were transferred to 384-well microtiter dishes (untreated, with flat clear bottoms) that had been pre-filled with 25 μl 5FOA medium and pre-pinned with 100 nl of compounds (stock solutions were generally 10 mM). Starting cell concentrations ranged from 0.5×10^5 to 4×10^5 cells/ml depending on the screening strain. […] Other positive control dishes contained 5 mM cAMP in the 5FOA medium for PDEs that lack appropriate control compounds. Cultures were grown for 48 hours at 30° C., sealed in an airtight container with moist paper towels to prevent evaporation. Optical densities (OD600) of cultures were measured using a microplate reader. Bioinformatic analysis of the results to determine composite Z scores was performed as previously described (1, 3).

PDE7A = molecular target: T3, PDE7A (Homo sapiens, UniProt Q13946); assay: Fission yeast 5FOA growth assay, strain expressing PDE7A; format: cell-based; details: 5FOA growth screen; for 1 Assay (20 uM), PDE 7A: 20 uM compound; for 2 Assay (2 uM), PDE 7A: 2 uM compound
T3 construct: targets used in the assays are full-length proteins (as opposed to simply the catalytic domain); expressed in transfected cells; host or cells: Schizosaccharomyces pombe, gene integrated at the cgs2 locus
T3 sequence (Q13946 whole entry, the tested form may be a part): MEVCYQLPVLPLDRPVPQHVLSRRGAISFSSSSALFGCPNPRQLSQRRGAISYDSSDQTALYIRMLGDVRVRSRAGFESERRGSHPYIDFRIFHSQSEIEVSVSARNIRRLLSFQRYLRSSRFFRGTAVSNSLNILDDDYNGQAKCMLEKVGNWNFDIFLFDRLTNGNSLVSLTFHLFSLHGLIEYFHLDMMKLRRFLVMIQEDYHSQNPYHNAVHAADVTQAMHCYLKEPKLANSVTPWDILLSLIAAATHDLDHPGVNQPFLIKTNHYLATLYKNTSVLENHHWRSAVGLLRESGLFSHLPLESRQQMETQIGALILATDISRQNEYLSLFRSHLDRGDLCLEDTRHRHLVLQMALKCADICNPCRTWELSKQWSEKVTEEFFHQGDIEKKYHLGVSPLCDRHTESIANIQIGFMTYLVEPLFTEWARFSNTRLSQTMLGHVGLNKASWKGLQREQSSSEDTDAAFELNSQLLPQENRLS
Description: as §1

[2] = system: PDE4A, PDE4B, PDE4D, PDE7A; assay: Overall PDE inhibitor profile from the yeast assays (table footnotes, summary); format: cell-based
How it was run: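 Fission yeast strains expressing full-length PDEs with an fbp1-ura4 reporter, pregrown in EMM with 0–2.5 mM cAMP (or 0.5 or 1.0 mM cGMP), then grown 48 h at 30° C in 5FOA medium with 100 nl of compound pinned per well (10 mM stocks). Growth read as OD600; composite Z scores calculated.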

PDE4D2 = molecular target: T4, PDE4D2 (Homo sapiens, UniProt Q08499); assay: cAMP assay in yeast strain expressing PDE4D2; format: cell-based
T4 construct: targets used in the assays are full-length proteins (as opposed to simply the catalytic domain); expressed in transfected cells; host or cells: Schizosaccharomyces pombe
T4 sequence (Q08499 303-809): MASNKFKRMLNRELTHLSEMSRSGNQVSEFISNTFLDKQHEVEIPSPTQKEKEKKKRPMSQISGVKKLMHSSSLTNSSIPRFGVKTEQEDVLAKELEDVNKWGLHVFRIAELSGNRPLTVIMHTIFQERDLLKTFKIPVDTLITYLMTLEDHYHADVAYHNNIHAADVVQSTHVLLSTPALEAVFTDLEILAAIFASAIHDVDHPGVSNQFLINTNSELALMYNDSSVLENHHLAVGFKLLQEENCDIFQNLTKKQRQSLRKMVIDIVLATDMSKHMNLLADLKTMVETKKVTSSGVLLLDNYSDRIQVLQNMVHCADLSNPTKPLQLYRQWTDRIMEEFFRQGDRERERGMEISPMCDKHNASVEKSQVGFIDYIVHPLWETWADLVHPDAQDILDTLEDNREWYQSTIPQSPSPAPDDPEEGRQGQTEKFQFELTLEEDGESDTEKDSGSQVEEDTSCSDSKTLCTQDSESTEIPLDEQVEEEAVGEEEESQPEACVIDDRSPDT

PDE4D3 [3] = molecular target: T1, PDE4D3; assay: cAMP assay in yeast strain expressing PDE4D3; format: cell-based

IC50 (PDE4D3 [1]) [nM]	1 Assay (20 uM), PDE 4A5 (PDE4A5)	1 Assay (20 uM), PDE 7A (PDE7A)	cAMP Response (% rolipram), PDE 4D2 (PDE4D2)	2 Assay (2 uM), PDE 4A5 (PDE4A5)	2 Assay (2 uM), PDE 7A (PDE7A)	cAMP Response (% rolipram), PDE 4D3 (PDE4D3 [3]) [% rolipram]	Compound	PDE inhibitor profile in words (table footnote / summary) [2]
200	84.08	0.31					Cc1ccc2c(c1)c1nc3ccccc3nc1n2C(C)C [Compound 41]	
	1.80 ND ND ND ND	−0.08 ND ND ND ND					COC(=O)C1=C(C)N(c2ccccc2F)C(=O)/C1=C\c1cccc(OC)c1O [2008, C21]	(2) Strong PDE4A, 4B inhibitor
	1.73 ND ND ND ND	2.78 ND ND ND ND					COC(=O)C1=C(C)N(c2ccc(C(C)C)cc2)C(=O)/C1=C\c1cccs1 [2008, O19]	(1) No activity under conditions used
	−0.06	132.82	ND ND ND 34.00 ND % rolipram	13.66	57.22	12.00	COC(=O)C1=C(C)N(C2CCCCC2)C(=O)/C1=C\c1cccs1 [Compound 22]	(4) Strong PDE4A, 4B, 7 inhibitor; Weak PDE4D inhibitor
	−0.06 ND ND ND ND	2.43 ND ND ND ND					COC(=O)C1=C(C)N(c2ccccc2)/C(=C/c2cccs2)C1=O [2008, K19]	(1) No activity under conditions used
100	65.67	2.34	ND ND ND 11.00 ND % rolipram	12.63	5.07	8.00	COC(=O)C1=C(C)N(c2ccccc2Cl)C(=O)/C1=C\c1cccs1 [Compound 27]	(3) Strong PDE4A, 4B inhibitor
